Data reported in ChEMBL document CHEMBL3886913, “2,4-diamino-6,7-dihydro-5H-pyrrolo[2,3]pyrimidine derivatives as FAK/Pyk2 inhibitors” (2016).

Key:
Focal adhesion kinase 1 = Focal adhesion kinase 1 (Homo sapiens, UniProt Q05397); test: (§1) Biochemical Assay: To measure inhibitory activity of FAK/PYK2 inhibitors, compounds were first prepare as a 1 mM stock in 100% DMSO and 3-fold serial dilution was performed in a 96-well plate (Corning, 3897) to generate 12 different concentration of 100× stock. A 5 μl of 100× stock of each concentration was added to wells containing 95 μl of 1× reaction buffer (40 mM Tris, pH7.5, […], 1 mM DTT and 1 mM CHAPS) to generate 5× stock. Then 2 μl of 5× stock of each concentration was added to a 384 wells-OptiPlate (PerkinElmer, 6007299). For FAK, 4 μl of 2.5 nM FAK, 1 μl of 8 μg/μl BSA and 1.5 μl of 666 nM ULight-poly Glu, Ala, Tyr (1:1:1) peptide substrate, prepared in above reaction buffer, were added to each well. The reaction was initiated by adding 1.5 μl of 33.3 μM ATP. The reaction was allowed to proceed for 120 min before being quenched with 5 μl of 40 mM EDTA stop buffer prepared in 1×LANCE detection buffer (PerkinElmer, CR97-100). For PYK2, 5 μl of 2 nM PYK2 and 1.5 μl of 666 nM ULight-poly Glu, Ala, Tyr (1:1:1) peptide substrate, prepared in above reaction buffer, were added to each well. The reaction was initiated by adding 1.5 μl of 46.6 μM ATP. The reaction was allowed to proceed for 40 min before being quenched with 5 μl of 40 mM EDTA stop buffer prepared in 1×LANCE detection buffer (PerkinElmer, CR97-100). Upon quenching of the reaction, 5 μl of 8 nM anti-phosphotyrosine antibody was added to each well and incubated for 60 minutes.
[1] = target: Protein-tyrosine kinase 2-beta (Homo sapiens, UniProt Q14289); test: as §1
Chain of Protein-tyrosine kinase 2-beta (Q14289 whole entry): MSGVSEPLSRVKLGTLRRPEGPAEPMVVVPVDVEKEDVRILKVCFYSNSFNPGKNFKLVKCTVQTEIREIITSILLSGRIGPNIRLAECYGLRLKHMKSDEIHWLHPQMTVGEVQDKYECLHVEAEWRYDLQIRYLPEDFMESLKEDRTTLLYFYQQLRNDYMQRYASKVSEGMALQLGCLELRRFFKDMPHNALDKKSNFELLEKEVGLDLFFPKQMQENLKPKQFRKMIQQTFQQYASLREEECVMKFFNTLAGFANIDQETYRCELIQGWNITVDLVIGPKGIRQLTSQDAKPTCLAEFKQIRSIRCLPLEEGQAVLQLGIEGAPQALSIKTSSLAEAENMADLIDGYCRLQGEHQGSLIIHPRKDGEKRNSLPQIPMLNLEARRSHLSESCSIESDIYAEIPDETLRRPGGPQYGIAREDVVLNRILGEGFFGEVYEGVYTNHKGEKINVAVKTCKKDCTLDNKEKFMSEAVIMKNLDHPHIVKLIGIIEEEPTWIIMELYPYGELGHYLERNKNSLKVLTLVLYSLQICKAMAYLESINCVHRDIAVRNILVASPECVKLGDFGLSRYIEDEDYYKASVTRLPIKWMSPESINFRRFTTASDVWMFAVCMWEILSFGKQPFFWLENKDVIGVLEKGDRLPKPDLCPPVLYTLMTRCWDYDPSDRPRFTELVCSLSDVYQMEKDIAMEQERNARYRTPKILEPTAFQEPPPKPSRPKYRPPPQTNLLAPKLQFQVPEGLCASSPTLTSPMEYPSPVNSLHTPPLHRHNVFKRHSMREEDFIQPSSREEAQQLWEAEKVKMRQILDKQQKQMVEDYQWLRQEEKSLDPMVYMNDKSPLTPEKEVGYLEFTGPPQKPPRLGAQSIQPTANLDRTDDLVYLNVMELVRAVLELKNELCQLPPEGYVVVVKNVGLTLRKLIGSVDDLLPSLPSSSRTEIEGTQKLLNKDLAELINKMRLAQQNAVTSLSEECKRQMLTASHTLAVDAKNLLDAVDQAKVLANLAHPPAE

Chain of Focal adhesion kinase 1 (Q05397 whole entry): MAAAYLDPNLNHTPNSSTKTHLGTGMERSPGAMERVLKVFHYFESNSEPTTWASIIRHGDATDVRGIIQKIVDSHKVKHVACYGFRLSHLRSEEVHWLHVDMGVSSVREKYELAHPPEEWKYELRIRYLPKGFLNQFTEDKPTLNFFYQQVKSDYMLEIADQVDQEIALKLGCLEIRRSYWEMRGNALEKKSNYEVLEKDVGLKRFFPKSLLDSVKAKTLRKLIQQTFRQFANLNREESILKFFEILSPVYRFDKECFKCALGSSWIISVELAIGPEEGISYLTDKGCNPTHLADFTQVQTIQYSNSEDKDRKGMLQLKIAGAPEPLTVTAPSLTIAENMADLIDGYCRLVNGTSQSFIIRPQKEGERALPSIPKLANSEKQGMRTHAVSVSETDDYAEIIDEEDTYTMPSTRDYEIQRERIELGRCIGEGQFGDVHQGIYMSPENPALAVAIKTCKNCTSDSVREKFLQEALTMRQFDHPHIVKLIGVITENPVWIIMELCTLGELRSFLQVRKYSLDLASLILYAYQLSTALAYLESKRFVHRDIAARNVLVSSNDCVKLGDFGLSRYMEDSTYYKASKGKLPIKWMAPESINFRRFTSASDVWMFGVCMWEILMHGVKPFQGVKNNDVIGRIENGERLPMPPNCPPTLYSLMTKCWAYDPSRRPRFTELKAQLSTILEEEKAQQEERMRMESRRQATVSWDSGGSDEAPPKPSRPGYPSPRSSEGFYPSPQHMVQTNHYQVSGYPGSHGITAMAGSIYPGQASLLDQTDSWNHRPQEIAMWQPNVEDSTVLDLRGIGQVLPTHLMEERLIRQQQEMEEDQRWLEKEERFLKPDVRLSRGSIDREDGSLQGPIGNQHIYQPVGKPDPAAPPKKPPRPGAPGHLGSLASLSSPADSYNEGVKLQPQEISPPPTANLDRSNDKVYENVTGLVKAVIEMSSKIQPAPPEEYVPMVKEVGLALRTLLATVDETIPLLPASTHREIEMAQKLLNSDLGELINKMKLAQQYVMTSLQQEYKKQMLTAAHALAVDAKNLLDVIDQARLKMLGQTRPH

| IC50 (Focal adhesion kinase 1) [µM] | IC50 [1] [µM] | Structure (SMILES) |
| --- | --- | --- |
| < 0.02 | < 0.02 | CCC(C)NS(=O)(=O)c1ccccc1Nc1nc(Nc2ccc(N3CCOCC3)cc2OC)nc2c1C1(CC1)CN2 (stereo unspecified) |
| < 0.02 | < 0.02 | CC(C)NS(=O)(=O)c1ccccc1Nc1nc(Nc2ccc(C(C)N3CCCCC3)cc2)nc2c1CCN2 (stereo unspecified) |
| < 0.5 | < 0.5 | COc1cc(N2C(=O)CCc3ccccc32)ccc1Nc1nc2c(c(Nc3ccccc3S(=O)(=O)NC(C)C)n1)CCN2 |
| < 1 | < 1 | COc1cc(N2CCOCC2)ccc1Nc1nc2c(c(Nc3ccccc3CCO)n1)CCN2 |
| > 1 | < 1 | COc1cc(N2CCOCC2)ccc1Nc1nc2c(c(Nc3ccc(F)c(F)c3)n1)CCN2 |
| < 0.02 | < 0.02 | COc1cc(N2CCCCC2=O)ccc1Nc1nc2c(c(Nc3ccccc3S(=O)(=O)NC(C)C)n1)CCN2 |
| < 0.05 | < 0.1 | CCOc1cc(N2CCOCC2)ccc1Nc1nc2c(c(Nc3ccccc3S(=O)(=O)NC(C)C)n1)CCN2 |
| < 0.02 | < 0.02 | COc1cc(N2CCC(N3CCOCC3)CC2)ccc1Nc1nc2c(c(Nc3ccccc3S(=O)(=O)NC(C)C)n1)CCN2 |
